Test results reported in patent publication US20120225135A1 (priority 2010, published 2012).

Key:
[1] = ORP stability test (ORP meter); format: physicochemical
Source text: Two further samples from the original batch were taken one was packed in an amber coloured PET bottle and the second in a HDPE plastic pouch.
Both were placed in an area out of direct sunlight and further the second sample was protected from light by a cardboard box.
Measurements of their voltage were taken using an ORP meter in accordance with the testing procedure described in the ORP related articles above.
Samples were kept in an office environment in Richmond on an exposed bench.
Sampling Equipment EUTECH INSTRUMENTS Waterproof ORPTestr 10

[2] = test system: Total Plate Count (microbiological surface contamination)
[3] = Processing of potatoes, micro-biological control of process water
[4] = test system: Saccharomyces diastaticus (70 percent sporulated); experiment: Microbiological effectiveness at cold temperatures; format: cell-based
[5] = test system: TPC; experiment: Sanitation of fishing holds, TPC; settings: cleaned surface sprayed with 10 ppm ClO2 solution
Source text: Gross filth removed and washed in detergent
Cleaned surface sprayed with 10 ppm ClO2 solution

[6] = test system: Total microbio counts
[7] = test system: Klebsiella terrigena, ATCC 33257; format: cell-based; settings: pH 5
[8] = test system: Salmonella choleraesuis, ATCC 10708; format: cell-based; settings: pH 5
[9] = test system: Rotavirus SA-11, ATCC VR-899; format: cell-based; settings: pH 9
[10] = test system: Giardia muris cysts; settings: in vivo
[11] = Residual ClO2 after contact with effluents or tap water (amperometric titration); format: physicochemical

[O][Cl+][O-] [Chlorine Dioxide, chlorine dioxide]
ORP mV ([1]; Card Board Wine Cask, April 20 (2005/2006)): 991 mV | ORP mV ([1]; Card Board Wine Cask, August 3 (2005/2006)): 987 mV | ORP mV ([1]; Card Board Wine Cask, August 24 (2005/2006)): 1143 mV | ORP mV ([1]; Card Board Wine Cask, January 18 (2005/2006)): 1021 mV | ORP mV ([1]; Card Board Wine Cask, July 7 (2005/2006, first entry)): 970 mV | ORP mV ([1]; Card Board Wine Cask, July 12 (2005/2006, last entry)): 975 mV | ORP mV ([1]; Card Board Wine Cask, July 18 (2005/2006)): 980 mV | ORP mV ([1]; Card Board Wine Cask, June 2 (2005/2006)): 970 mV | ORP mV ([1]; Card Board Wine Cask, March 14 (2005/2006)): 1008 mV | ORP mV ([1]; Card Board Wine Cask, May 11 (2005/2006)): 970 mV | ORP mV ([1]; Card Board Wine Cask, November 29 (2005/2006)): 977 mV | ORP mV ([1]; Card Board Wine Cask, October 21 (2005/2006)): 1036 mV | ORP mV ([1]; Card Board Wine Cask, September 5 (2005/2006)): 1135 mV | ORP mV ([1]; Card Board Wine Cask, September 20 (2005/2006)): 1130 mV | ORP mV ([1]; Sample PET bottle, April 20 2005): 975 mV | ORP mV ([1]; Sample PET bottle, Aug 8 2005): 926 mV | ORP mV ([1]; Sample PET bottle, Aug 24 2005): 960 mV | ORP mV ([1]; Sample PET bottle, July 10 2005): 960 mV | ORP mV ([1]; Sample PET bottle, July 20 2005): 954 mV | ORP mV ([1]; Sample PET bottle, June 12 2005): 970 mV | ORP mV ([1]; Sample PET bottle, June 21 2005): 965 mV | ORP mV ([1]; Sample PET bottle, May 10 2005): 980 mV | ORP mV ([1]; Sample PET bottle, May 20 2005): 971 mV | ORP mV ([1]; Sample PET bottle, Oct 12 2005): 948 mV | ORP mV ([1]; Sample PET bottle, Oct 28 2005): 941 mV | ORP mV ([1]; Sample PET bottle, Sept 5 2005): 955 mV | ORP mV ([1]; Sample PET bottle, Sept 20 2005): 954 mV | TPC at day zero [2]: less than 7×10^4 | micro-biological control compared with chlorine [3]: better micro-biological control agent than chlorine at 5-10 ppm | Deactivation (%) [4]: 99.999% | TPC at day zero [5]: less than 7×10^4 | Total microbio counts [6]: 1-5 organisms/ml | reduction in titer [7]: > 6 log 10 | reduction in titer [8]: > 6 log 10 | reduction in titer [9]: > 4 log 10 | reduction of infectivity for mice [10]: > 3 log 10 | ClO2 residual ([11]; effluent, ClO2 dose 5.2 mg/L, contact time 3½ hrs): 0.4 mg/L as ClO2 | ClO2 residual ([11]; effluent, ClO2 dose 5.2 mg/L, contact time 10 min): 1.9 mg/L as ClO2 | ClO2 residual ([11]; effluent, ClO2 dose 5.2 mg/L, contact time 30 min): 1.4 mg/L as ClO2 | ClO2 residual ([11]; effluent, ClO2 dose 5.2 mg/L, contact time 1 hr): 1.0 mg/L as ClO2 | ClO2 residual ([11]; effluent, ClO2 dose 5.2 mg/L, contact time 2 hrs): 0.8 mg/L as ClO2 | ClO2 residual ([11]; effluent, ClO2 dose 5.2 mg/L, contact time 24 hrs): 0 mg/L as ClO2 | ClO2 residual ([11]; effluents, ClO2 dose 7.84 mg/L, contact time 10 min): 3.0 mg/L as ClO2 | ClO2 residual ([11]; effluents, ClO2 dose 7.84 mg/L, contact time 30 min): 2.6 mg/L as ClO2 | ClO2 residual ([11]; effluents, ClO2 dose 7.84 mg/L, contact time 60 min): 2.1 mg/L as ClO2 | ClO2 residual ([11]; effluents, ClO2 dose 7.84 mg/L, contact time 1.5 hr): 1.9 mg/L as ClO2 | ClO2 residual ([11]; effluents, ClO2 dose 7.84 mg/L, contact time 2.5 hr): 1.5 mg/L as ClO2 | ClO2 residual ([11]; effluents, ClO2 dose 7.84 mg/L, contact time 3.5 hr): 1.0 mg/L as ClO2 | ClO2 residual ([11]; effluents, dose 19.2 mg/L, 20 minutes, pH initial 4, final 3.4): 4.66 mg/L as ClO2 | ClO2 residual ([11]; effluents, dose 19.2 mg/L, 20 minutes, pH initial 5, final 4.6): 4.37 mg/L as ClO2 | ClO2 residual ([11]; effluents, dose 19.2 mg/L, 20 minutes, pH initial 6, final 6.45): 4.95 mg/L as ClO2 | ClO2 residual ([11]; effluents, dose 19.2 mg/L, 20 minutes, pH initial 7.5, final 7.3): 3.84 mg/L as ClO2 | ClO2 residual ([11]; effluents, dose 19.2 mg/L, 20 minutes, pH initial 9, final 8.8): 1.27 mg/L as ClO2 | ClO2 residual ([11]; effluents, dose 19.2 mg/L, 20 minutes, pH initial 10, final 9.9): 0.11 mg/L as ClO2 | ClO2 residual ([11]; effluents, dose 37.5 mg/L, 20 minutes, pH initial 4.0, final 3.5): 25.84 mg/L as ClO2 | ClO2 residual ([11]; effluents, dose 37.5 mg/L, 20 minutes, pH initial 5.0, final 4.95): 26.88 mg/L as ClO2 | ClO2 residual ([11]; effluents, dose 37.5 mg/L, 20 minutes, pH initial 6.0, final 6.05): 24.20 mg/L as ClO2 | ClO2 residual ([11]; effluents, dose 37.5 mg/L, 20 minutes, pH initial 7.5, final 7.3): 25.27 mg/L as ClO2 | ClO2 residual ([11]; effluents, dose 37.5 mg/L, 20 minutes, pH initial 9, final 8.8): 15.13 mg/L as ClO2 | ClO2 residual ([11]; effluents, dose 37.5 mg/L, 20 minutes, pH initial 10, final 9.8): 5.23 mg/L as ClO2 | ClO2 residual ([11]; tap water with ammonium ion, nitrites, nitrates, neutral pH, dose 19.2 mg/L, 10 min): 0 mg/L as ClO2 | ClO2 residual ([11]; tap water with ammonium ion, nitrites, nitrates, neutral pH, dose 19.2 mg/L, 30 min): 0 mg/L as ClO2 | ClO2 residual ([11]; tap water with ammonium ion, nitrites, nitrates, neutral pH, dose 19.2 mg/L, 1 hr): 0.07 mg/L as ClO2
